We go through 12 compounds from ChEMBL document CHEMBL5465560, “Selectivity Literature for EUbOPEN Chemogenomic Library” (2024).

Assay [1] has as its target Protein kinase C theta type (Homo sapiens, UniProt Q04759). The assay can be described thus: Selectivity interaction (KinomeScan (DiscoverX)) EUB0001619a PRKCQ. Particulars: at 1 µM.
Assay [2] concerns the target Death-associated protein kinase 1 (Homo sapiens, UniProt P53355). The assay is described as follows: Selectivity interaction (KinomeScan (DiscoverX)) EUB0000666a DAPK1. To be noted: at 10 µM.
The target in assay [3] is Casein kinase I isoform gamma-3 (Homo sapiens) (UniProt Q9Y6M4). The assay can be described thus: Selectivity interaction (KinomeScan (DiscoverX)) EUB0000666a CSNK1G3. Particulars: at 10 µM.
Assay [4] deals with TRAF2 and NCK-interacting protein kinase (Homo sapiens) (UniProt Q9UKE5). The assay can be described thus: Selectivity interaction (KinomeScan (DiscoverX)) EUB0000607a TNIK. To be noted: at 10 µM.
Assay [5] concerns Epidermal growth factor receptor (Homo sapiens), P00533 [UNDEFINED MUTATION]. The assay can be described thus: Selectivity interaction (KinomeScan (DiscoverX)) EUB0000607a EGFR. To be noted: at 10 µM.
Assay [6] concerns the target Mitogen-activated protein kinase kinase kinase kinase 5 (Homo sapiens) (UniProt Q9Y4K4). To be noted: at 10 µM.
Assay [7] concerns the target T1, Serine/threonine-protein kinase BRSK2 (Homo sapiens) (UniProt Q8IWQ3).
T1 sequence (whole entry): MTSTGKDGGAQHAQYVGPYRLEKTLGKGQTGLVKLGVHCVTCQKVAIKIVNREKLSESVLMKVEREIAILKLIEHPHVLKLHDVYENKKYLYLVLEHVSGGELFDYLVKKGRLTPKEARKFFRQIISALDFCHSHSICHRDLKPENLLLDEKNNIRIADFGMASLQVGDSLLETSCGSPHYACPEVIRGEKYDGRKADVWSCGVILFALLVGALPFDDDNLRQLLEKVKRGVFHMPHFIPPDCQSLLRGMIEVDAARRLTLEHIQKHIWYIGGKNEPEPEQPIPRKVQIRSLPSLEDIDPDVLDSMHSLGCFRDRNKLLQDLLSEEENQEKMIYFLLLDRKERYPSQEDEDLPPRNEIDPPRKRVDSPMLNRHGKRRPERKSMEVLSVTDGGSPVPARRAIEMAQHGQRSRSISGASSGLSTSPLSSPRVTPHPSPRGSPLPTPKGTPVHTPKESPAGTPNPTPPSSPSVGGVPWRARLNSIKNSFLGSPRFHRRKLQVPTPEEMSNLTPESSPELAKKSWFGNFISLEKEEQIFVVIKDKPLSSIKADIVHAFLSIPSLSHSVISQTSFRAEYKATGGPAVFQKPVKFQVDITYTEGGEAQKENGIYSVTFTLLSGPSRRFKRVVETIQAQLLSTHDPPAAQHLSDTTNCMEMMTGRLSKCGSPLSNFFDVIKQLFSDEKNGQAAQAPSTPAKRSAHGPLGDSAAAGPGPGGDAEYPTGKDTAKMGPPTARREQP
The assay is described as follows: Selectivity interaction (Kinase screening (Nanosyn)) EUB0000604a BRSK2.

Assay [8] addresses Dual specificity mitogen-activated protein kinase kinase 1 (Homo sapiens, UniProt Q02750). The assay can be described thus: Selectivity interaction (ActivX KiNativ screen (kinase selectivity in THP-1 cell lysates)) EUB0000639a MAP2K1. The assay is classed as subcellular. To be noted: lysate, at 0.04 µM.
The target of assay [9] is Mitogen-activated protein kinase 10 (Homo sapiens, UniProt P53779). The assay is described as follows: Selectivity interaction (ActivX KiNativ screen (kinase selectivity in THP-1 cell lysates)) EUB0000639a MAPK10. It is filed as subcellular. To be noted: lysate.
Assay [10] deals with Serine/threonine-protein kinase pim-2 (Homo sapiens, UniProt Q9P1W9). The assay is described as follows: Selectivity interaction (KinomeScan (DiscoverX)) EUB0000045b PIM2.
Assay [11] has as its target Serine/threonine-protein kinase PAK 2 (Homo sapiens) (UniProt Q13177). The assay can be described thus: Selectivity interaction (KinomeScan (DiscoverX)) EUB0000655a PAK2. To be noted: at 10 µM.
In assay [12] the target is Histone-lysine N-methyltransferase, H3 lysine-36 specific (Homo sapiens) (UniProt Q96L73). The assay can be described thus: Selectivity interaction (Transferase panel (protein, RNA, and DNA methyltransferases. and EP300 (acetyltransferase))) EUB0000270b NSD1.
In assay [13] the target is Mitogen-activated protein kinase kinase kinase 14 (Homo sapiens) (UniProt Q99558). The assay can be described thus: Selectivity interaction (KinomeScan (DiscoverX)) EUB0001079a MAP3K14. Particulars: at 1 µM.
For assay [14], the target named is Tyrosine-protein kinase Lck (Homo sapiens, UniProt P06239). The assay is described as follows: Selectivity interaction (Panel of kinases, GPCRs, ion channels and transporters (enzymatic assay)) EUB0000266bCl LCK.
In assay [15] the target is Mitogen-activated protein kinase 14 (Homo sapiens, UniProt Q16539). The assay is described as follows: Selectivity interaction (Kinase panel (KiNativ target engagement assay in Jurkat cells)) EUB0001635a MAPK14. It is filed as cell-based. Particulars: Selectivity number of off-targets 0.0, Selectivity number of targets 233.0, Source Knowledge https://www.sciencedirect.com/science/article/pii/S2451945619300674?via%3Dihub, at 1 µM.
Chain of Mitogen-activated protein kinase 14 (Q16539 whole entry): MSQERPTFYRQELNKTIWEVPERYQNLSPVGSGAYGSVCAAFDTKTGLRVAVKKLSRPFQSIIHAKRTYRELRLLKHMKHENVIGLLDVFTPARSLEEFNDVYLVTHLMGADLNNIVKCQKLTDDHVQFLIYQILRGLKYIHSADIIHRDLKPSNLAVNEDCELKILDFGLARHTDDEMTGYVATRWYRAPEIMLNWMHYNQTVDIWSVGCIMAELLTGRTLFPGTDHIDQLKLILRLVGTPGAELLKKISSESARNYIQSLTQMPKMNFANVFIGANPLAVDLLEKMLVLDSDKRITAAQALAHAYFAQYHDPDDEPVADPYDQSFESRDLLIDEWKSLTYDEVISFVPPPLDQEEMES

Chain of Mitogen-activated protein kinase 10 (P53779 whole entry): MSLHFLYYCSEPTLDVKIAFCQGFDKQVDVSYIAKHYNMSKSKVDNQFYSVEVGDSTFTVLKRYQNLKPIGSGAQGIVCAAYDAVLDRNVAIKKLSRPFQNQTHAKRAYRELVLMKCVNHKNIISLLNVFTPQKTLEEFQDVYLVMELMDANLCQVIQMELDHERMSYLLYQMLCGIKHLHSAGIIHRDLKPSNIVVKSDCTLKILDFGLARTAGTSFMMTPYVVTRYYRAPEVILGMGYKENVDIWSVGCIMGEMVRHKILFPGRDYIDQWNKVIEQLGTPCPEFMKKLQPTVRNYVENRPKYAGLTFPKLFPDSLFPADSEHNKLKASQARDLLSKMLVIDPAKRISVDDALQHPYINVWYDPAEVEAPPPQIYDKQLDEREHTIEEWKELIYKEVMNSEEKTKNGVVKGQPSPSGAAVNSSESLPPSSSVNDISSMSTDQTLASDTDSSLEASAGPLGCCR
Chain of Serine/threonine-protein kinase pim-2 (Q9P1W9 whole entry, looked up): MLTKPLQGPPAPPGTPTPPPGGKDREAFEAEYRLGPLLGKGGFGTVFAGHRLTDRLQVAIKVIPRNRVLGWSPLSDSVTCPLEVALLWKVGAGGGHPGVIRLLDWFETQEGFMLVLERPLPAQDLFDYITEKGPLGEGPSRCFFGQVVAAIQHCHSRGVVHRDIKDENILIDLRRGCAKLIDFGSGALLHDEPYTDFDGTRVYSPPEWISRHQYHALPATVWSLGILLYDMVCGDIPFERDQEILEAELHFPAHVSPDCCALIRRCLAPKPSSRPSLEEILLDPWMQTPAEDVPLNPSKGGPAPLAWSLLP
Chain of Histone-lysine N-methyltransferase, H3 lysine-36 specific (Homo sapiens) (Q96L73 whole entry): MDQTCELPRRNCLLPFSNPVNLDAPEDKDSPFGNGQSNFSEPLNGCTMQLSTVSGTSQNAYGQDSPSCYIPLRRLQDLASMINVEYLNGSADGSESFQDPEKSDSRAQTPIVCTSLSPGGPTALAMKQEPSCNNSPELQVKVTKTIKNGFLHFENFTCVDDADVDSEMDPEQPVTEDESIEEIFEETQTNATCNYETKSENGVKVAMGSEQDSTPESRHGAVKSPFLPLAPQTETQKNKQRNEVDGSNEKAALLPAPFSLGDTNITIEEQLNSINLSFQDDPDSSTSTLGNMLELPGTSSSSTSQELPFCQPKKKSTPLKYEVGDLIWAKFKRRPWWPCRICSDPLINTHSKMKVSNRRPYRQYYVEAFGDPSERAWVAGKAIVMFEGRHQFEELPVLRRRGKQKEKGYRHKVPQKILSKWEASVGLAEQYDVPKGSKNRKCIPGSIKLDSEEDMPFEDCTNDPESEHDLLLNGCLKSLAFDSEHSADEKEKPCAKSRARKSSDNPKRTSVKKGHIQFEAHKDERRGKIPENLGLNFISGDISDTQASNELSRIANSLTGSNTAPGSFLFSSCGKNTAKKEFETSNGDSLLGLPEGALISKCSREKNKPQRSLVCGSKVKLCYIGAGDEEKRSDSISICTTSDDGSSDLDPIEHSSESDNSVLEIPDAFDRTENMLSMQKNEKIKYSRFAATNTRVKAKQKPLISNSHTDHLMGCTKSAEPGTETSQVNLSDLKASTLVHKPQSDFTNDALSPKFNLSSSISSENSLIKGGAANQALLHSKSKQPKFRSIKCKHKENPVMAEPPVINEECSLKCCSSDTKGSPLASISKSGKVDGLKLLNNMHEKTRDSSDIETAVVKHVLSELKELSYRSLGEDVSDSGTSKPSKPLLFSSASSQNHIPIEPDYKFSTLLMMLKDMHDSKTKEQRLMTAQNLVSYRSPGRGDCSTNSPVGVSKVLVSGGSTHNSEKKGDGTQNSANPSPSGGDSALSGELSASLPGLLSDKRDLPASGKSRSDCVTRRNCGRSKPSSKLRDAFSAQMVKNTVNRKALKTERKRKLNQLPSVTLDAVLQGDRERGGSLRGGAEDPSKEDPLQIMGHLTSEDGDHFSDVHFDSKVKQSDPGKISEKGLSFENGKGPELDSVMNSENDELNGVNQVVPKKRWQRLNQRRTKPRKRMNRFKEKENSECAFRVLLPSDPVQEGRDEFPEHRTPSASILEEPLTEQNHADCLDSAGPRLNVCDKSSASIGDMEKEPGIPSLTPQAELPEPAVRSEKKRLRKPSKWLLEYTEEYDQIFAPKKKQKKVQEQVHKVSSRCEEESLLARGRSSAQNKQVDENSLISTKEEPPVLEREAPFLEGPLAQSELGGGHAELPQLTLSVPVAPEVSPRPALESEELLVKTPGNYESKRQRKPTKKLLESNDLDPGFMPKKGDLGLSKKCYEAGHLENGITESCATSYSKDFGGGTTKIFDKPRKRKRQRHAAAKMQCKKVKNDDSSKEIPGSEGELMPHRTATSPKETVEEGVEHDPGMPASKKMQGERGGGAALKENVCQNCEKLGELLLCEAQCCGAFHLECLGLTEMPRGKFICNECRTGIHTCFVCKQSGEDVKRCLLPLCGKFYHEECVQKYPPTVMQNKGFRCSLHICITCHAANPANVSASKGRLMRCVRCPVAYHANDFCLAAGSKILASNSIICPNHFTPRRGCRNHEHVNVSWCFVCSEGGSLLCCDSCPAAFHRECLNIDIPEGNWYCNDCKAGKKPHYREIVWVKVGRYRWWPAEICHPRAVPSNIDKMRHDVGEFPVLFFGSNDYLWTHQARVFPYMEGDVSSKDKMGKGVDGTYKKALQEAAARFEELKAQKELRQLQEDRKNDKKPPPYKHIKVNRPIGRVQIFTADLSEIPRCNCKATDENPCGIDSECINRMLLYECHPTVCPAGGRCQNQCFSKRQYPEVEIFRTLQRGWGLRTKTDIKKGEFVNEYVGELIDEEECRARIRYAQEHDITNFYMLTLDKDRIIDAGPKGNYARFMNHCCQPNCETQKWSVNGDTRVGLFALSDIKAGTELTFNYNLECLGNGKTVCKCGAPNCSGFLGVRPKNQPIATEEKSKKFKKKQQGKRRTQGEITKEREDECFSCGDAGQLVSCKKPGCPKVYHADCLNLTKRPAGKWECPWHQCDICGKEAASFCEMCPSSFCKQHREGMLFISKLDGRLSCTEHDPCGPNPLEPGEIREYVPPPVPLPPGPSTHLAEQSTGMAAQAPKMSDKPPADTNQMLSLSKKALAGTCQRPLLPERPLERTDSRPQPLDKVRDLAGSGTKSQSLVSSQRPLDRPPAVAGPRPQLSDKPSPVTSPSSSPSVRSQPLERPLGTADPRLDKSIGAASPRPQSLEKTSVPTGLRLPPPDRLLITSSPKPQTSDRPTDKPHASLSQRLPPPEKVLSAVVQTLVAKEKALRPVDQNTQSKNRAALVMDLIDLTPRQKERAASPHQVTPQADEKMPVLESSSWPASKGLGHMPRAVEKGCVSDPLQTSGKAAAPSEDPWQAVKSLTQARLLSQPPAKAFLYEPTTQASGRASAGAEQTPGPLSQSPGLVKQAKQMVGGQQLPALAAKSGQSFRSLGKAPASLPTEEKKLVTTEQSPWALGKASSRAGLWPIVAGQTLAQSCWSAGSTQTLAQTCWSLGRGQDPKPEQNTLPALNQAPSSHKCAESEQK
Chain of Epidermal growth factor receptor (Homo sapiens), P00533 [UNDEFINED MUTATION] (P00533 whole entry, looked up, change not shown): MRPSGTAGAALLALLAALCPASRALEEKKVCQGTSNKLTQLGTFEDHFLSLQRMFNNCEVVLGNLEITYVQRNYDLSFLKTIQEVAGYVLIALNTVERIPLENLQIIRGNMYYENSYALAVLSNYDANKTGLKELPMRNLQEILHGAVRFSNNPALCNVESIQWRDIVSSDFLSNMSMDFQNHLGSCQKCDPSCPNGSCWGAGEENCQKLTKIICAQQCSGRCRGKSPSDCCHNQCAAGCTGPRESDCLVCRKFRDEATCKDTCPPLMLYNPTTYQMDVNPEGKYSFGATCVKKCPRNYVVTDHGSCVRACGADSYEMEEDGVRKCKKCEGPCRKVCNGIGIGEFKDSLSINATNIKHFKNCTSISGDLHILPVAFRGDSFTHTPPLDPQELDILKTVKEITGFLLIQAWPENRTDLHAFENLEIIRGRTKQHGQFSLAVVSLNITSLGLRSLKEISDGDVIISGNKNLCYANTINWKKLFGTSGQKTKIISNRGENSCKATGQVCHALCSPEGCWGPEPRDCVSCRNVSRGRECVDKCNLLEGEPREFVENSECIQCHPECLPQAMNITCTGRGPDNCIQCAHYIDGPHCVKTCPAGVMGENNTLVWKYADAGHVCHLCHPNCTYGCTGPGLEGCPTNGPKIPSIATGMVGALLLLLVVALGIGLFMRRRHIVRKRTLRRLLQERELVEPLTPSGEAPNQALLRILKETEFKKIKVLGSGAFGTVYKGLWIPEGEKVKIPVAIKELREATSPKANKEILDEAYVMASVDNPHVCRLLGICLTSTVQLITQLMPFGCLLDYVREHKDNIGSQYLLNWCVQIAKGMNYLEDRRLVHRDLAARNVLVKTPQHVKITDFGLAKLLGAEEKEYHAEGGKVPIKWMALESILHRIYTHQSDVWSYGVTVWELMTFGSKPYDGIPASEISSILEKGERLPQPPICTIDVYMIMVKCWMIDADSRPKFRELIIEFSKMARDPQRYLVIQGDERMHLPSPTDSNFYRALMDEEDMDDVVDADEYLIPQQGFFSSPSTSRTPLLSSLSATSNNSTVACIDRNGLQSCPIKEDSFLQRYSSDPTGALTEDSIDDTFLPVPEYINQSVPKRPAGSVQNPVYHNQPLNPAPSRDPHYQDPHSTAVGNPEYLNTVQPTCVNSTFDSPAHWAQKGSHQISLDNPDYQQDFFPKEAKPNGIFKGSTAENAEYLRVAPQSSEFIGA

The compound `N#Cc1cccc(-c2c[nH]c3ncnc(N4CCOCC4)c23)c1` displayed a % of control in [1] of 77%.
As for `O=C(NOC[C@H](O)CO)c1ccc(F)c(F)c1Nc1ccc(I)cc1F`, the values for the % of control in [2] and in [3] were 100% and 67%, respectively.
For the compound `CNC(=O)Nc1ccc(-c2nc(N3CC4CCC(C3)O4)c3cnn(C4CCC5(CC4)OCCO5)c3n2)cc1`, the results for the % of control in assay [4] and in assay [5] were 100% and 62%, respectively.
As for `Cc1cc([C@@H](C)Nc2ccccc2C(=O)O)c2nc(N3CCOCC3)cc(=O)n2c1` [AZD-6482], the % of control in [6] is 96%.
Regarding `Cc1cnc(Nc2ccc(F)cc2Cl)nc1-c1c[nH]c(C(=O)N[C@H](CO)c2cccc(Cl)c2)c1`, the % of inhibition in assay [7] came out at 2%.
As to `CC[C@@H]1[C@H](F)C(=O)N[C@@H]1COc1nccc2cc(C(N)=O)c(OC)cc12` [ZIMLOVISERTIB], the % of inhibition in assay [8] is 5.6%; in assay [9] (at 0.01 µM), 13.3%; in assay [9] (at 0.04 µM), -1.4%; in [9] (at 0.2 µM), 1.6%; in assay [9] (at 1 µM) it was 27.7%; in assay [9] (at 5 µM), 57.5%.
In the case of `C=CC(=O)Nc1cc(-n2c(=O)ccc3cnc4ccc(-c5ccc(NS(C)(=O)=O)cc5)cc4c32)ccc1C`, the % of control in [10] (at 1 µM) is 66%; in assay [10] (at 10 µM), 100%.
In assay [11], `CN(C)CCOc1ccc(-c2nc(-c3ccncc3)c(-c3ccc4c(c3)CC/C4=N\O)[nH]2)cc1` gave a % of control of 85%.
As for `Cc1cc(CN)cc(C)c1-c1ncn(C)c1-c1cncn1C`, the % activity in [12] (at 1 µM) is over 90%; in [12] (at 10 µM) it was over 80%.
For the compound `Nc1cnc(N2CCc3cc(S(=O)(=O)Nc4c(F)cc(Cl)cc4F)cc(N4CCCC4=O)c32)nc1` [TP-020n], in assay [13], the % of control was found to be 75%.
In assay [14], `CCn1c(-c2nc3cc(C(=O)N4CCCC(N)C4)ccc3n2C)cc2ccccc21` (stereo unspecified) registered a pXC50 of under 4.5 M.
For the compound `C=CC(=O)Nc1ccc(C(=O)Nc2[nH]nc3c2CN(C(=O)N[C@H](CN(C)C)c2ccccc2)C3(C)C)cc1`, the % of engagement in [15] is -6.9%.
